Laboratory results from patent US9662063B2, “Pain sensory nerve stimulation apparatus” (INTER-UNIVERSITY RESEARCH INSTITUTE CORPORATION NATIONAL …, priority 2011, dated 2017).

Test system: C fibers
Experiment: Current threshold for C fiber stimulation (anode stimulation) after application of capsaicin in vaseline to subjects
Assay type: in vivo
Conditions: for current threshold: anode stimulation of C fibers
Source text: Even when any one of the above-described configurations of the stimulation electrode 30 is used, at least one of an exogenous algesic substance 60 and a pyrogen 60 is interposed between the stimulation electrode 30 and the contact portion of the living body A, by means of, for example, application (FIG. 1). Examples of the exogenous algesic substance 60 are capsaicin, sanshool, zingerone, camphor, allyl isothiocyanate, and menthol. The exogenous algesic substance is a concept which contains an algesic substance, a phlogogenic substance, and an irritating substance. In the case where the exogenous algesic substance 60 is interposed by means of application, it is preferably applied about 20 minutes before stimulation of the living body. Preferably, the pyrogen 60 warms the stimulation portion of the living body A to about 30° C. by, for example, using heat generation due to an oxidation reaction of a metal. The operating section 24 includes a polarity conversion setting unit. The polarity conversion setting unit can give instructions for causing the polarity switching section 25 which is the electrical polarity converting unit, to convert the electrical polarity. According to the configuration, the electrical polarity of the needle electrode 31 can be set as the anode, and that of the contact electrode 32 can be set as the cathode, or, by contrast, the electrical polarity of the needle electrode 31 can be set as the cathode, and that of the contact electrode 32 can be set as the anode. […] In the case where the polarity switching section 25 sets the electrical polarity of the needle electrode 31 as the cathode, moreover, Aδ fibers can be selectively stimulated. Table 1 indicates results of measurements in which an appropriate amount (a weight ratio of about 0.05 to 0.1 with respect to vaseline) of capsaicin was applied as the exogenous algesic substance to four subjects. Table 1 indicates relationships between the current threshold in the case where the anode stimulation was performed on each subject and C fibers of each subject was stimulated, and the time period elapsed after the application. […] Since an effect due to stimulation was obtained even at a low stimulation intensity (mA), this minimizes the burden on a subject, and realizes the check of the nerve function. It was also confirmed that an effective examination can be conducted without being affected by the skill of the measuring person.

COc1cc(CNC(=O)CCCC/C=C/C(C)C)ccc1O [capsaicin]
current threshold (Subject 1, 5 minutes after application, capsaicin weight ratio about 0.05 to 0.1 with respect to vaseline): 0.10 (mA) | current threshold (Subject 1, 10 minutes after application): 0.10 (mA) | current threshold (Subject 1, 15 minutes after application): 0.09 (mA) | current threshold (Subject 1, 20 minutes after application): 0.09 (mA) | current threshold (Subject 2, 5 minutes after application): 0.32 (mA) | current threshold (Subject 2, 10 minutes after application): 0.18 (mA) | current threshold (Subject 2, 15 minutes after application): 0.13 (mA) | current threshold (Subject 2, 20 minutes after application): 0.15 (mA) | current threshold reduced to fraction of the normal value (Subject 2, during 20 minutes after the application): about one half | current threshold (Subject 3, 5 minutes after application): 0.14 (mA) | current threshold (Subject 3, 10 minutes after application): 0.13 (mA) | current threshold (Subject 3, 20 minutes after application): 0.09 (mA) | current threshold reduced to fraction of the normal value (Subject 3, during 20 minutes after the application): about two thirds | current threshold (Subject 4, 5 minutes after application): 0.05 (mA) | current threshold (Subject 4, 10 minutes after application): 0.04 (mA) | current threshold (Subject 4, 15 minutes after application): 0.04 (mA) | current threshold (Subject 4, 20 minutes after application): 0.04 (mA) | trend of the current threshold (four subjects, during 20 minutes after the application): downward trend
